# In ChEMBL document CHEMBL1156757, “Dihydroxyphenylisoindoline amides as orally bioavailable inhibitors of the heat shock protein 90 (hsp90) molecular chaperone” (J Med Chem, 2010):
# Columns and labels:
# Liver microsomes [1] = test: Hepatic clearance in human liver microsomes […]; format: ADME, Microsome
# Heat shock protein HSP90 = Heat shock protein HSP90 (Homo sapiens, UniProt P07900+P08238)
# Mus musculus [2] = test: Free plasma concentration in mouse at 100 mg/kg, po after 1 hr; format: ADME, organism-based; set-up: dose 100 mg/kg, route oral; details: in vivo
# [3] = Clearance in rat; format: ADME, organism-based; details: in vivo
# [4] = Oral bioavailability in rat; format: ADME, organism-based; details: in vivo
# [5] = AUC (0 to infinity) in rat at 2.5 mg/kg, iv; format: ADME, organism-based; set-up: time infinity, dose 2.5 mg/kg, route intravenous; details: plasma
# Mus musculus [6] = test: Free plasma concentration in mouse at 100 mg/kg, ip after 1 hr; format: ADME, organism-based; set-up: dose 100 mg/kg, route intraperitoneal; details: in vivo
# [7] = AUC (0 to infinity) in rat at 10 mg/kg, po; format: ADME, organism-based; set-up: time infinity, dose 10 mg/kg, route oral; details: plasma
# [8] = Half life in rat; format: ADME, organism-based; details: in vivo
# Mus musculus [9] = test: Free plasma concentration in mouse at 20 mg/kg, iv after 4 hrs; format: ADME, organism-based; set-up: dose 20 mg/kg, route intravenous; details: in vivo
# Mus musculus [10] = test: Free plasma concentration in mouse at 100 mg/kg, po after 4 hrs; format: ADME, organism-based; set-up: dose 100 mg/kg, route oral; details: in vivo
# Mus musculus [11] = test: Free plasma concentration in mouse at 100 mg/kg, ip after 4 hrs; format: ADME, organism-based; set-up: dose 100 mg/kg, route intraperitoneal; details: in vivo
# Liver microsomes [12] = test: Hepatic clearance in rat liver microsomes […]; format: ADME, Microsome
# [13] = Volume of distribution in rat; format: ADME, organism-based; details: in vivo
# [14] = Half life in mouse at 100 mg/kg, po; format: ADME, organism-based; set-up: dose 100 mg/kg, route oral; details: in vivo
# Mus musculus [15] = test: Free plasma concentration in mouse at 20 mg/kg, iv after 1 hr; format: ADME, organism-based; set-up: dose 20 mg/kg, route intravenous; details: in vivo
# [16] = Half life in mouse at 20 mg/kg, iv; format: ADME, organism-based; set-up: dose 20 mg/kg, route intravenous; details: in vivo
CLH (Liver microsomes [1]) [µL/min],IC50 (Heat shock protein HSP90) [µM],Structure (SMILES),other results
2,0.6,O=C(C1c2ccccc2CN1C(=O)c1cc(Cl)c(O)cc1O)N1CCCC1 (stereo unspecified),
56,,O=C(c1cc(Cl)c(O)cc1O)N1CCCC1,
9,,O=C(NC1CCCCC1)[C@H]1CCCN1C(=O)c1cc(Cl)c(O)cc1O,
9,,CCCNC(=O)C1c2ccccc2CN1C(=O)c1cc(Cl)c(O)cc1O (stereo unspecified),
8.5,1.5,C=CCNC(=O)C1c2ccccc2CN1C(=O)c1cc(Cl)c(O)cc1O (stereo unspecified),
< 9,,O=C([C@H]1CCCN1C(=O)c1cc(Cl)c(O)cc1O)N1CCCC1,
2.4,1.5,CN(C)C(=O)C1c2ccccc2CN1C(=O)c1cc(Cl)c(O)cc1O (stereo unspecified),
25,0.7,O=C(NCc1ccccc1)C1c2ccccc2CN1C(=O)c1cc(Cl)c(O)cc1O (stereo unspecified),
7,0.3,CCNC(=O)[C@H]1c2ccccc2CN1C(=O)c1cc(Cl)c(O)cc1O,Cp(f) (Mus musculus [2]): 810 nM; clearance [3]: 23.3 mL/min/kg; bioavailability [4]: 20%; AUC(0-inf) [5]: 1700 ng·h/mL; Cp(f) (Mus musculus [6]): 16000 nM; AUC(0-inf) [7]: 1300 ng·h/mL; half-life [8]: 5.2 h; Cp(f) (Mus musculus [9]): 76 nM; Cp(f) (Mus musculus [10]): 330 nM; Cp(f) (Mus musculus [11]): 410 nM; CLH (Liver microsomes [12]): 0.2 µL/min; Vd [13]: 3.3 L/kg; half-life [14]: 8.3 h; Cp(f) (Mus musculus [15]): 286 nM; half-life [16]: 5.2 h
< 7,,CN(C)C(=O)[C@H]1CCCN1C(=O)c1cc(Cl)c(O)cc1O,
< 2,1.7,CNC(=O)C1c2ccccc2CN1C(=O)c1cc(Cl)c(O)cc1O (stereo unspecified),
11,0.6,O=C([C@H]1c2ccccc2CN1C(=O)c1cc(Cl)c(O)cc1O)N1CCCC1,clearance [3]: 23.3 mL/min/kg; bioavailability [4]: 35%; AUC(0-inf) [5]: 2100 ng·h/mL; AUC(0-inf) [7]: 2900 ng·h/mL; half-life [8]: 7.9 h; CLH (Liver microsomes [12]): 0.2 µL/min; Vd [13]: 8.1 L/kg
129,1,Cc1ccccc1[C@H]1CCCN1C(=O)c1cc(Cl)c(O)cc1O,
4.7,0.3,CCNC(=O)C1c2ccccc2CN1C(=O)c1cc(Cl)c(O)cc1O (stereo unspecified),

Structure (SMILES),CLH (Liver microsomes [1]) [µL/min],IC50 (Heat shock protein HSP90) [µM],other results
CO[C@H]1/C=C\C=C(/C)C(=O)NC2=CC(=O)C(NCCN(C)C)=C(C[C@@H](C)C[C@H](OC)[C@H](O)[C@@H](C)/C=C(\C)[C@@H]1OC(N)=O)C2=O [ALVESPIMYCIN],< 3,,
